Test results: paper PMC5063977 (The Journal of Biological Chemistry, 2016)

Legend:
RAMP2-CLR (AM1 receptor) = molecular target: T1, RAMP2-CLR (AM1 receptor) (Homo sapiens, UniProt O60895+Q16602); assay: cAMP accumulation, HEK-293S cells, RAMP2 + CLR; assay type: cell-based; conditions: HEK293S, untreated, percentage of maximal cAMP with 100 μM forskolin in presence of PTX, mean ± S.E., n = 5
T1 construct: FLAG; expressed in transfected cells; host or cells: HEK-293 or HEK-293S cells, transient transfection, 1:1 RAMP:CLR
T1 sequence (Q16602 23-461): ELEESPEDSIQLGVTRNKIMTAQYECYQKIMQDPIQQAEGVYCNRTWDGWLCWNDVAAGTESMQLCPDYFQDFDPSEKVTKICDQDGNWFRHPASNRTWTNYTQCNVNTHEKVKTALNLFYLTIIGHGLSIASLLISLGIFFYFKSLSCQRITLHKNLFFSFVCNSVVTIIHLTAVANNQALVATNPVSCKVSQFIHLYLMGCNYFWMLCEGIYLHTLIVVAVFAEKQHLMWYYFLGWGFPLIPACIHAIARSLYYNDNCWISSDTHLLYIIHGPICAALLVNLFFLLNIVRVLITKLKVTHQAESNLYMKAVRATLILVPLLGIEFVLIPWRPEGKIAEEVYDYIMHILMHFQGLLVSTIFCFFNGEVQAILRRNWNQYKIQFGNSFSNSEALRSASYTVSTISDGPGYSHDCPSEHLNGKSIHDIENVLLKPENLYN
T1 sequence (O60895 43-175): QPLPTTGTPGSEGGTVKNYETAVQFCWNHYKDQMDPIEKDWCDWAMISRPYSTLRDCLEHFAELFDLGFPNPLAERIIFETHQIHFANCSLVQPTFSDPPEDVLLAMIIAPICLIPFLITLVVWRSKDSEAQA
Description: HEK-293 cells were transfected with FuGENE 6 (Roche Applied Science) in accordance with the manufacturer's instructions using a 1:3 (w:v) DNA:FuGENE ratio and a 1:1 ratio of RAMP to CLR. […] The transfected cell lines were grown for 24–48 h prior to assaying.
The transfected HEK-293 cells were washed in PBS, resuspended in stimulation buffer (PBS containing 0.1% BSA and 0.5 mM IBMX), and seeded at 2000 cells/well in 384-well white Optiplates. Ligands were added in the range of 1 pM to 1 mM, and cAMP accumulation was measured after 30 min of stimulation using a LANCE® cAMP detection kit (PerkinElmer Life Sciences). […] Plates were read using a Mithras LB 940 multimode microplate reader (Berthold Technologies). […] Values were converted to concentration using a cAMP standard curve performed in parallel.
Data analysis for cAMP assays was performed in GraphPad Prism 6.0f (San Diego, CA). […] These values were then used to quantify signaling bias as change in log (τ/Ka) relative to the natural cognate ligand for the respective receptor ([41]). […] Statistical differences were analyzed using one-way ANOVA or Student's t test as appropriate with post hoc Bonferroni's or Dunnett's multiple comparisons, and p < 0.05 was considered significant. […] To quantitate the ligand-dependent response in the yeast system, a strain lacking GPA1 (MMY11), grown in rich medium, was used as a standard ([72]). […]

RAMP3-CLR (AM2 receptor) = molecular target: T2, RAMP3-CLR (AM2 receptor) (Homo sapiens, UniProt O60896+Q16602); assay: (Ca^2+)i mobilization, HEK-293 cells, RAMP3 + CLR; assay type: cell-based; conditions: HEK293, percentage of maximal (Ca^2+)i release with 10 μM ionomycin, mean ± S.E., n = 5
T2 construct: FLAG; expressed in transfected cells; host or cells: HEK-293 or HEK-293S cells, transient transfection, 1:1 RAMP:CLR
T2 sequence (Q16602 23-461): as the sequence (Q16602 23-461) above
T2 sequence (O60896 24-148): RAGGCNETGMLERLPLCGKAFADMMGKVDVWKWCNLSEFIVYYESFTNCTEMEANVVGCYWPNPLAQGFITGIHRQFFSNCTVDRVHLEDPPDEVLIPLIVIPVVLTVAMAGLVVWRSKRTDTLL
Description: HEK-293 cells, provided by Dr. Jügen Müller (University of Aston), were cultured in DMEM supplemented with 10% heat-inactivated FBS and kept at 37 °C in a humidified 95% air, 5% CO2 incubator. HEK-293S cells (a gift from AstraZeneca) were cultured in DMEM supplemented with 8% heat-inactivated FBS and kept at 37 °C in a humidified 95% air, 5% CO2 incubator. HEK-293 cells were transfected with FuGENE 6 (Roche Applied Science) in accordance with the manufacturer's instructions using a 1:3 (w:v) DNA:FuGENE ratio and a 1:1 ratio of RAMP to CLR. HEK-293S cells were seeded into 96-well poly-D-lysine-coated plates at a density of 15,000 cells/well (determined using a Countess^TM cell counter, Invitrogen) 1 day prior to transfection. HEK-293S cells were transiently transfected as described previously ([38]) using a 1:1 ratio of RAMP to CLR. The transfected cell lines were grown for 24–48 h prior to assaying.
Transfected HEK-293 cells were grown to confluence in black, clear bottomed, 96-well plates. […] Ligands were added robotically using a Mithras LB 940 multimode microplate reader in the range of 10 pM to 1 μM, and fluorescence was determined immediately post-injection with an excitation wavelength set to 485 nm and an emission wavelength set to 535 nm. […] Peak magnitude was calculated using five-point smoothing followed by correction against background fluorescence. […]

Row | Structure (SMILES) | Emax (RAMP2-CLR (AM1 receptor)) [%] | Emax (RAMP3-CLR (AM2 receptor)) [%]
1 | CSCC[C@H](NC(=O)[C@H](CC(C)C)NC(=O)[C@H](CCC(N)=O)NC(=O)[C@H](Cc1c[nH]c2ccccc12)NC(=O)[C@H](CC(C)C)NC(=O)[C@H](CCCNC(=N)N)NC(=O)[C@H](Cc1c[nH]cn1)NC(=O)[C@H](CO)NC(=O)[C@H](CC(C)C)NC(=O)[C@H](CC(N)=O)NC(=O)[C@H](CCC(N)=O)NC(=O)[C@@H](NC(=O)[C@H](CCC(N)=O)NC(=O)[C@@H]1CSSC[C@H](NC(=O)CNC(=O)[C@@H](NC(=O)[C@H](CCCNC(=N)N)NC(=O)[C@H](CC(C)C)NC(=O)[C@H](CC(C)C)NC(=O)[C@H](CCC(N)=O)NC(=O)[C@H](C)NC(=O)[C@H](CCC(N)=O)NC(=O)[C@@H](N)[C@@H](C)O)C(C)C)C(=O)N[C@@H](C(C)C)C(=O)N[C@@H](CC(C)C)C(=O)NCC(=O)N[C@@H]([C@@H](C)O)C(=O)N1)C(C)C)C(=O)NCC(=O)N1CCC[C@H]1C(=O)N[C@@H](C)C(=O)NCC(=O)N[C@@H](CCCNC(=N)N)C(=O)N[C@@H](CCC(N)=O)C(=O)N[C@@H](CC(=O)O)C(=O)N[C@@H](CO)C(=O)N[C@@H](C)C(=O)N1CCC[C@H]1C(=O)N[C@H](C(=O)N[C@@H](CC(=O)O)C(=O)N1CCC[C@H]1C(=O)N[C@@H](CO)C(=O)N[C@@H](CO)C(=O)N1CCC[C@H]1C(=O)N[C@@H](Cc1c[nH]cn1)C(=O)N[C@@H](CO)C(=O)N[C@@H](Cc1ccc(O)cc1)C(N)=O)C(C)C [AM2, adrenomedullin 2] | 40.3 ± 1.5 | –
2 | CC[C@H](C)[C@H](NC(=O)[C@H](CCC(N)=O)NC(=O)[C@H](Cc1c[nH]cn1)NC(=O)[C@H](C)NC(=O)[C@H](CC(C)C)NC(=O)[C@H](CCCCN)NC(=O)[C@H](CCC(N)=O)NC(=O)[C@@H](NC(=O)[C@@H](NC(=O)[C@@H]1CSSC[C@H](NC(=O)CNC(=O)[C@H](Cc2ccccc2)NC(=O)[C@H](CO)NC(=O)[C@H](CCCNC(=N)N)NC(=O)[C@H](CC(C)C)NC(=O)CNC(=O)[C@H](CCC(N)=O)NC(=O)[C@H](Cc2ccccc2)NC(=O)[C@H](CC(N)=O)NC(=O)[C@H](CC(N)=O)NC(=O)[C@H](CCSC)NC(=O)[C@H](CO)NC(=O)[C@H](CCC(N)=O)NC(=O)[C@H](CCCNC(=N)N)NC(=O)[C@@H](N)Cc2ccc(O)cc2)C(=O)N[C@@H](CCCNC(=N)N)C(=O)N[C@@H](Cc2ccccc2)C(=O)NCC(=O)N[C@@H]([C@@H](C)O)C(=O)N1)[C@@H](C)O)C(C)C)C(=O)N[C@@H](Cc1ccc(O)cc1)C(=O)N[C@@H](CCC(N)=O)C(=O)N[C@@H](Cc1ccccc1)C(=O)N[C@H](C(=O)N[C@@H](CC(=O)O)C(=O)N[C@@H](CCCCN)C(=O)N[C@@H](CC(=O)O)C(=O)N[C@@H](CCCCN)C(=O)N[C@@H](CC(=O)O)C(=O)N[C@@H](CC(N)=O)C(=O)N[C@H](C(=O)N[C@@H](C)C(=O)N1CCC[C@H]1C(=O)N[C@@H](CCCNC(=N)N)C(=O)N[C@@H](CO)C(=O)N[C@@H](CCCCN)C(=O)N[C@H](C(=O)N[C@@H](CO)C(=O)N1CCC[C@H]1C(=O)N[C@@H](CCC(N)=O)C(=O)NCC(=O)N[C@@H](Cc1ccc(O)cc1)C(N)=O)[C@@H](C)CC)C(C)C)[C@@H](C)O [AM, adrenomedullin] | – | 56.7 ± 6.6
